According to patent publication US20110027230A1 (priority 2008, published 2011):

Key:
[1] = tested on: C57BL/6J-APC Min/+ transgenic mice; assay: Histological grading of dysplasia of adenomatous formations; assay type: in vivo, mouse; conditions: estradiol-treated animals
Text: Histological preparations of randomly chosen intestine sections of every animal from the different treatment groups were observed by a blinded pathologist, who graded the dysplasia of the adenomatous formations present as minor, mild or severe.

[2] = tested on: C57BL/6J-APC Min/+ transgenic mice; assay: Number and volume of intestinal polyps in APC Min/+ mice fed different diets for 10 weeks; assay type: in vivo, mouse; conditions: standard diet, s.c. pellet 1.5 mg 17β-estradiol, mean ± SD
Text: The C57BL/6J APC Min/+ transgenic mouse is an excellent animal model for FAP, because the mutated APC gene is homologous to the human one. Even in the most common form of CRC, called sporadic, 85% of cases show the somatic mutation of the APC tumour suppressor gene. Therefore, the APC mutated transgenic animal model is acknowledged as the most significant for the study of the pathogenetic mechanisms that characterise the adenomatous polyposis in the colon, both in FAP and sporadic form, and it is considered a validated animal model for the set up of nutritional and pharmacological interventions aimed at controlling the development of adenomas and at preventing their progression to CRC (Levy D B et al. Inactivation of both APC alleles in human and mouse tumors. Cancer Res 1994, 54: 5953-5958; Paulsen J E et al. Qualitative and quantitative relationship between dysplastic aberrant crypt foci and tumorigenesis in the Min/+ mouse colon). For this reason, in setting up the oral formulations object of the present invention, and in the evaluation of their safety and efficacy, the Inventors made use of the above mentioned C57BL/6J APC Min/+ transgenic mouse model. Hereafter are described the data showing the effect in C57BL/6J-APC Min/+ transgenic mice, orally fed silymarin added diets, containing soluble and insoluble fibres in different proportions with the purpose of highlighting the differentiative properties of the insoluble and indigestible fibre. […]
After 10 weeks of treatment the animals received an intraperitoneal injection of 0.75 mg of Bromodeoxyuridine (BrdU), equivalent to 30 mg/kg, to verify the migration of cells of the intestinal mucosa along the villus axis (from crypt at the bottom to the luminal tip). […] Two blinded observers measured the number and size of polyps. […]

[3] = Body weight, mortality, dietary intake and tolerability during 10 weeks of diet; conditions: standard diet, s.c. pellet 1.5 mg 17β-estradiol, mean ± SD
Experimental: Silymarin up to 200 mg/kg was added to each diet. The diets were orally administered for 10 weeks to 114 male C57BL/6J-APC Min/+ transgenic mice 5-6 weeks old. These mice have a mutation of the APC gene, and are prone to develop colon adenomatous polyposis. […] The statistical analysis has been performed by means of the One-way Analysis of Variance and the t-Student tests, considering statistically significant a p<0.05.
Every oral treatment lasted 10 weeks. The treatment scheme was designed to highlight the effects of the type of fibre, associated or not with increasing amounts of silymarin.

[4] = tested on: C57BL/6J-APC Min/+ transgenic mice; conditions: female transgenic mice, administration after ovariectomy, Weyant et al.; cited from earlier work
[5] = tested on: cells of the intestinal mucosa; assay: BrdU cell migration along the villus axis (highest labeled cell); assay type: in vivo, mouse; conditions: estrogen s.c., standard diet, 24 h after BrdU
Experimental: After 10 weeks of treatment the animals received an intraperitoneal injection of 0.75 mg of Bromodeoxyuridine (BrdU), equivalent to 30 mg/kg, to verify the migration of cells of the intestinal mucosa along the villus axis (from crypt at the bottom to the luminal tip). This parameter allows to verify the normal esfoliative physiology of the intestinal mucosa, through which the mucosa keeps itself composed of healthy and vital cells. To this end, the animals were sacrificed 24, 48 and 72 hours after injection. Small intestine and colon were taken from every sacrificed animal. The small intestine was divided into three sections: proximal, medial and distal. The proximal tract was further divided in two portions that were subsequently scraped. One of the two was dipped in RNAlater® and stored at −20° C. and the other stored in liquid nitrogen. The two samples were used for Real Time PCR and Western Blotting, respectively. The medial and distal tracts, together with the colon, were used for the histological analysis. After a 3-hours pre-fixative treatment with formol, the intestinal tracts under examination were observed under an STM1 stereomicroscope, 3× magnification. Two blinded observers measured the number and size of polyps.

## C[C@]12CC[C@@H]3c4ccc(O)cc4CC[C@H]3[C@@H]1CC[C@@H]2O [estrogen, 17β-estradiol]
[1]
  Animals showing polyps with dysplasia classifiable as severe: 70%
[2]
  Number of intestinal polyps: 32.33 ± 12.06
[2]; listed as Estrogen
  Polyps volume: 141.78 ± 79.1 mm^3
[2]; listed as estradiol
  Polyps volume: ineffective
[3]
  Body weight at time of sacrifice: 24.9 ± 2.8 g
[4]
  Intestinal adenomas after ovariectomy: caused a reduction in intestinal adenomas
[5]
  24 hours migration of colonocytes from the crypt to the apex of the villus: 47.3 ± 10.5 %
